In patent US20060019967A1 (priority 2004, published 2006):

What follows are compounds tested against HCV NS3 protease (Hepatitis C virus genotype 1b, UniProt P26663).
Format: biochemical

HCV NS3 protease, sequence (P26663 1027-1206, other chains not shown): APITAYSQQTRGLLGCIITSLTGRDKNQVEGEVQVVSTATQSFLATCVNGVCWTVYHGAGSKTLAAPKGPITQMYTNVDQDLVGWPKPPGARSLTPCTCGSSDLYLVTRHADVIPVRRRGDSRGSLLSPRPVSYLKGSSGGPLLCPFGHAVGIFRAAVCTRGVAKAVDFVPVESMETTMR

Structure (SMILES)	inhibition of the proteolytic activity of HCV NS3 protease
CCOC(=O)/C(C#N)=C/Nc1ccc(S(=O)(=O)c2ccc(N/C=C(\C#N)C(=O)OCC)cc2)cc1 [Compound 14]	effectively inhibited
CCOC(=O)C(=CNc1ccc(S(=O)(=O)c2ccc(NC=C(C(=O)OCC)C(=O)OCC)cc2)cc1)C(=O)OCC [Compound 20]	effectively inhibited
O=C(CC1=NCCS1)c1cccs1 [Compound 21]	effectively inhibited
CN(C)/C=C(/C(=O)c1cccs1)c1nnnn1-c1ccccc1 [Compound 25]	effectively inhibited
Cc1cc(S(=O)(=O)c2c([N+](=O)[O-])cc(C(F)(F)F)cc2[N+](=O)[O-])c(Cl)cc1Cl [Compound 1]	effectively inhibited
